Measured values reported in the supplement of paper PMC10307832.

Columns and labels:
Test in all cases: relative viability (nuclei count vs DMSO), 5 days (fraction); higher = more cells survive
[1] = compound: CCn1c(-c2nonc2N)nc2c(C#CC(C)(C)O)ncc(OC[C@H]3CCCNC3)c21 + Cc1nc(Nc2ncc(C(=O)Nc3c(C)cccc3Cl)s2)cc(N2CCN(CCO)CC2)n1 [Dasatinib] (partner 0.075 µM)
Summary of the method: (§1)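 The day after seeding in 1536-well plates, lung cancer cell lines were treated by pin tool with a single drug, or with a fixed anchor-drug dose together with five library-drug doses (not always all listed) in √10 steps. After 5 days, a combined fix-and-stain solution (final 0.05% Triton X-100, 1% formaldehyde, 1 ug/ml Hoechst) was added. Nuclei counted on 4× images gave relative viability as treated counts over vehicle counts, reported as the median of duplicate plates.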

BAM7 + Navitoclax = compound: CCOC1=CC=CC=C1N=NC2=C(NN(C2=O)C3=NC(=CS3)C4=CC=CC=C4)C [BAM7] + CC1(C)CCC(c2ccc(Cl)cc2)=C(CN2CCN(c3ccc(C(=O)NS(=O)(=O)c4ccc(N[C@H](CCN5CCOCC5)CSc5ccccc5)c(S(=O)(=O)C(F)(F)F)c4)cc3)CC2)C1 [Navitoclax] (partner 0.5 µM)
Summary of the method: as §1

[2] = compound: CCn1c(-c2nonc2N)nc2c(C#CC(C)(C)O)ncc(OC[C@H]3CCCNC3)c21 + CCNC(=O)c1noc(-c2cc(C(C)C)c(O)cc2O)c1-c1ccc(CN2CCOCC2)cc1 [Luminespib] (partner 0.01 µM)
Summary of the method: as §1

BAM7 + Lapatinib = compound: CCOC1=CC=CC=C1N=NC2=C(NN(C2=O)C3=NC(=CS3)C4=CC=CC=C4)C [BAM7] + CS(=O)(=O)CCNCc1ccc(-c2ccc3ncnc(Nc4ccc(OCc5cccc(F)c5)c(Cl)c4)c3c2)o1 [Lapatinib] (partner 2 µM)
Summary of the method: as §1

Cell Line	relative viability ([1]; first compound 0.01 µM)	relative viability ([1]; first compound 0.03162 µM)	relative viability ([1]; first compound 0.1 µM)	relative viability ([1]; first compound 0.3162 µM)	relative viability ([1]; first compound 1 µM)	relative viability (BAM7 + Navitoclax; first compound 0.5 µM)	relative viability (BAM7 + Navitoclax; first compound 5 µM)	relative viability (BAM7 + Navitoclax; first compound 15.81 µM)	relative viability (BAM7 + Navitoclax; first compound 50 µM)	relative viability ([2]; first compound 0.01 µM)	relative viability ([2]; first compound 0.03162 µM)	relative viability ([2]; first compound 0.1 µM)	relative viability ([2]; first compound 0.3162 µM)	relative viability ([2]; first compound 1 µM)	relative viability (BAM7 + Lapatinib; first compound 0.5 µM)	relative viability (BAM7 + Lapatinib; first compound 5 µM)	relative viability (BAM7 + Lapatinib; first compound 15.81 µM)	relative viability (BAM7 + Lapatinib; first compound 50 µM)
ChaGo-K-1	0.621	0.636	0.55	0.58	0.6	0.882	1.18	1.11	1.08	0.564	0.588	0.655	0.535	0.505	–	–	–	–
NCI-H522	0.796	0.949	0.845	0.718	0.998	–	–	–	–	0.929	1.19	1.14	0.604	1.2	–	–	–	–
NCI-H1299	–	–	–	–	–	1.05	1.08	1.07	1.06	–	–	–	–	–	0.835	1.01	0.954	0.964
NCI-H2342	0.286	0.304	0.32	0.317	0.33	–	–	–	–	0.91	0.678	0.67	0.625	0.757	–	–	–	–
SW 900	0.731	0.527	0.566	0.544	0.538	–	–	–	–	0.189	0.185	0.18	0.16	0.162	–	–	–	–
HCC-366	0.597	0.6	0.602	0.593	0.606	1.11	0.981	0.964	0.957	–	–	–	–	–	1.09	1.1	1.03	0.984
A549	–	–	–	–	–	1.34	1.27	1.16	1.27	–	–	–	–	–	1.08	1.05	1.03	0.924
NCI-H661	0.996	0.86	0.9	0.751	0.764	–	–	–	–	0.89	0.95	0.947	0.965	0.995	0.704	0.494	0.41	0.54
NCI-H1563	0.449	0.437	0.441	0.511	0.446	–	–	–	–	0.466	0.641	0.5	0.463	0.505	1.01	0.962	0.969	1.05
ABC-1	0.531	0.455	0.612	0.448	0.559	–	–	–	–	–	0.533	1.04	0.403	0.682	–	1.24	1.16	1.36
LCLC-103H	0.381	0.451	0.445	0.444	0.433	–	–	–	–	0.936	0.912	0.94	0.735	0.863	–	–	–	–
NCI-H441	0.585	0.593	0.499	0.637	0.505	0.688	0.772	0.635	0.956	0.434	0.312	0.349	0.379	0.367	–	–	–	–
